No end group written: not given here.
How the values were obtained:
ACTH secretion = conditions: reported in prior art; cited from earlier work
blood pressure = conditions: reported in prior art; cited from earlier work
[1] = test system: muscle vascular permeability after celiotomy; assay: Vascular leakage after celiotomy (4 cm midline incision through abdominal muscle wall), Monastral blue; type: in vivo, rat; conditions: for Area / Intensity / Lesion Size: tissues taken 0.5 hr after surgery; for vascular leakage (lesion size) relative to that of the saline-treated group: Table III
Protocol: Experiments were conducted on male Sprague-Dawley rats 243±15 gm (S.D., Simonsen Labs., Gilroy, Calif.) anesthetized with sodium pentobarbital, 60 mg/kg i.p. Monastral blue, 60 mg/kg i.v., was injected 0.2 ml/100 g, 3 min. before a 4 cm midline incision through the abdominal muscle wall (celiotomy). Saline or CRF was administered to randomized pairs with N=8 rats per group. The size of the lesion, measured as area in mm^2, and its light intensity, were quantified using the JAVA image-analysis software program. The light intensity, given in arbitrary units, was internally calibrated using Monastral blue solutions (1-30 mg/ml) placed on white filter paper. Values are mean ± S.E.M. FIG. 2 illustrates the respective amount of vascular permeability for one pair of rats (control and treated). Tables III and IV set out data from these experiments.
CRF: injected at various doses subcutaneously 30 min
before a 4 cm midline incision, tissues taken 0.5 hr
CRF: 30 μg/kg s.c. injected 2 hr before a 4 cm midline
incision, tissues taken 0.5 hr after surgery

[2] = test system: brain edema after freeze injury; assay: Freeze injury to cerebral cortex, brain water and sodium content (brain edema); type: in vivo, rat; conditions: CRF 30 μg/kg s.c. 2×, tissues 3 hr after injury, ± S.E.M., N = 5
Protocol: In a second set of experiments, the brain surface, namely the cerebral cortex, was injured by freezing and the water and sodium content were measured in the cerebral cortex and in the basal ganglia, a part of the brain away from the freeze zone. The water and sodium content of the brain tissue served as an index of brain edema. After freeze injury, the water and sodium content of the cerebral cortex were evaluated relative to non-frozen tissues. CRF administered in two separate doses of 30 μg/kg subcutaneously, one dose 15 min. before the injury and the second dose 90 min. after the first dose, inhibited the two indices of brain edema.
Male SpragueDawley rats, 300-325 g, anesthetized with
ketamineacepromazine, were injected saline or CRF (30 μg/kg s.c.
2×) and injury to cerebral cortex was produced by applying a cold
probe to the skull for 1 min. Brain tissues were obtained 3 hr later and
analyzed for water and sodium content.

[3] = test system: brain vascular permeability after cold injury; assay: Cold (freeze) injury to brain, vascular leakage by Monastral blue staining; type: in vivo, rat
Description: An in vivo model of injury to study brain edema has been developed as a reproducible edema model, which has the features of immediate cortical damage followed by the subsequent development of brain edema. This model is described by Chan et al., Brain Research 277, pp. 329-337 (1983). The model uses rats which are anesthetized. A 2.5 cm incision is made over the sagittal suture and the bone of the right hemisphere exposed. A 60 mm^2 plate attached to a brass cup filled with dry ice-acetone mixture, with a temperature of -50° C., is applied to the rat skull for one minute. The animals are sacrificed at various intervals after the onset of cold-injury. A dye is administered intravenously before the freezing. Cortical slices are then obtained of the brain.
16 male rats were randomly divided into eight pairs and one rat in each pair received either saline or CRF (subcutaneously twice at 30 μg/kg, 30 min and 10 min before cold injury). The animals were anesthetized with sodium pentobarbital, 60 mg/kg intraperitoneally, and injected with Monastral blue, 60 mg/kg intravenously. A cold probe was applied onto the skull for […] and the brains taken out 1 hour after cold injury. The staining of brain tissues with Monastral blue, a colloidal pigment that gets trapped between the albuminal surface of the endothelial cell and the basement membrane, was proportional to the degree of vascular leakage. The results from the first pair are shown as FIG. 1.
The size of the lesion, measured as area in mm^2, and the degree of staining intensity, were quantified using an image-analysis software program called JAVA (Jandel Corporation, San Rafael, Calif.). The stain intensity, given in arbitrary units, was internally calibrated using Monastral blue solutions (1-30 mg/ml) placed on white filter paper. Values are mean ± S.E.M.

[4] = test system: PAF-acether induced vascular leakage in muscle; assay: Vascular leakage produced by PAF-acether injected subcutaneously into the abdomen; type: in vivo, rat
Protocol: CRF: 30 μg/kg s.c. injected 30 min before subcutaneous
injection of PAF-acether (1 μg/0.1 ml/rat) into the
abdomen; muscle removed 0.5 hr later.

edema of rat pawskin = conditions: mediators injected into the rat pawskin; previously shown; cited from earlier work
[5] = CRF 15 μg/kg s.c. 30 min before incision
[6] = CRF 30 μg/kg s.c. 30 min before incision
[7] = CRF 30 μg/kg s.c. 2 hr before incision
[8] = CRF 60 μg/kg s.c. 30 min before incision
[9] = rat, CRF 30 μg/kg s.c. twice, 30 min and 10 min before cold injury, brains taken 1 hour after injury, mean ± S.E.M.
[10] = CRF 30 μg/kg s.c. 30 min before PAF-acether 1 μg/0.1 ml/rat s.c., muscle removed 0.5 hr later

## CC[C@H](C)[C@H](NC(=O)[C@@H](NC(=O)[C@H](CC(=O)O)NC(=O)[C@H](CC(C)C)NC(=O)[C@H](CC(C)C)NC(=O)[C@H](CC(C)C)NC(=O)[C@H](CCCNC(=N)N)NC(=O)[C@H](CC(N)=O)NC(=O)[C@H](CC(N)=O)NC(=O)[C@H](C)NC(=O)[C@H](C)NC(=O)[C@H](CCC(N)=O)NC(=O)[C@H](CCC(N)=O)NC(=O)[C@H](CCCCN)NC(=O)[C@H](CCC(=O)O)NC(=O)[C@H](CCCCN)NC(=O)[C@H](CCC(=O)O)NC(=O)[C@H](CCC(N)=O)NC(=O)[C@H](CCCCN)NC(=O)[C@H](CCC(=O)O)NC(=O)[C@@H](NC(=O)[C@H](CCC(=O)O)NC(=O)[C@@H](NC(=O)[C@H](CCSC)NC(=O)[C@H](CCCCN)NC(=O)[C@H](CCCNC(=N)N)NC(=O)[C@H](CC(C)C)NC(=O)[C@H](CC(C)C)NC(=O)[C@H](CCC(=O)O)NC(=O)[C@H](CC(C)C)NC(=O)[C@H](CO)NC(=O)[C@H](CC(C)C)NC(=O)[C@H](CC(=O)O)NC(=O)[C@@H](NC(=O)[C@H](CO)NC(=O)[C@@H](NC(=O)[C@@H]1CCCN1C(=O)[C@@H]1CCCN1C(=O)CNC(=O)[C@@H]1CCC(=O)N1)[C@@H](C)CC)[C@@H](C)CC)[C@@H](C)CC)[C@@H](C)CC)[C@@H](C)O)C(N)=O [Sauvagine]
ACTH secretion
  effect on ACTH secretion: stimulating the secretion of ACTH
Blood pressure
  effect on blood pressure: lowering blood pressure

## H-Asn-Asp-Asp-Pro-Pro-Ile-Ser-Ile-Asp-Leu-Thr-Phe-His-Leu-Leu-Arg-Asn-Met-Ile-Glu-Met-Ala-Arg-Asn-Glu-Asn-Gln-Arg-Glu-Gln-Ala-Gly-Leu-Asn-Arg-Lys-Tyr- Leu-Asp-Glu-Val-NH2 (H-NDDPPISIDLTFHLLRNMIEMARNENQREQAGLNRKYLDEV-NH2) [carp urotensin]
ACTH secretion
  effect on ACTH secretion: stimulate ACTH
Blood pressure
  effect on blood pressure: lower blood pressure

## Ser-Gln-Glu-Pro-Pro-Ile-Ser-Leu-Asp-Leu-Thr-Phe-His-Leu-Leu-Arg-Glu-Val-Leu-Glu-Met-Thr-Lys-Ala-Asp-Gln-Leu-Ala-Gln-Gln-Ala-His-Ser-Asn-Arg-Lys-Leu-Leu-Asp-Ile-Ala-NH2 (SQEPPISLDLTFHLLREVLEMTKADQLAQQAHSNRKLLDIA-NH2) [oCRF]
Blood pressure
  effect on blood pressure: lower blood pressure

## Ser-Glu-Glu-Pro-Pro-Ile-Ser-Leu-Asp-Leu-Thr-Phe-His-Leu-Leu-Arg-Glu-Val-Leu-Glu-Met-Ala-Arg-Ala-Glu-Gln-Leu-Ala-Gln-Gln-Ala-His-Ser-Asn-Arg-Lys-Leu-Met-Glu-Ile-Ile-NH^2 (SEEPPISLDLTFHLLREVLEMARAEQLAQQAHSNRKLMEII-NH2) [CRF, 41 amino acid neuropeptide]
ACTH secretion
  effect on ACTH secretion: stimulates ACTH release from pituitary cells
[1]; [5]
  Area: 505 ± 16 mm^2
  Intensity: 2.0 ± 0.03 arbitrary units
  Lesion Size: 1031 ± 44
  vascular leakage (lesion size) relative to that of the saline-treated group: 63%
[1]; [6]
  Area: 361 ± 18 mm^2
  Intensity: 1.9 ± 0.05 arbitrary units
  Lesion Size: 676 ± 47
  vascular leakage (lesion size) relative to that of the saline-treated group: 42%
[1]; [7]
  Area: 477 ± 31 mm^2
  Intensity: 1.9 ± 0.03 arbitrary units
  Lesion Size: 919 ± 51
[1]; [8]
  Area: 257 ± 3 mm^2
  Intensity: 1.8 ± 0.05 arbitrary units
  Lesion Size: 468 ± 19
  vascular leakage (lesion size) relative to that of the saline-treated group: 29%
[1]; Table IV, CRF 30 μg/kg s.c. 2 hr before incision
  lesion size relative to that of the saline-treated group: 59%
[2]; BASAL GANGLIA (non-injured)
  SODIUM: 215 ± 9 mEg/kg dry wt
  WATER CONTENT: 76 ± 1%
[2]; CEREBRAL CORTEX (injured)
  SODIUM: 271 ± 8 mEg/kg dry wt
  WATER CONTENT: 77 ± 4%
[3]; Table I, brain cold injury, CRF 30 μg/kg s.c. twice
  lesion size relative to that of the saline-treated group: 44%
[3]; eight pairs of rats, more damaged vs less damaged brain
  correct assignment of brains to saline or CRF group by an observer unaware of pretreatment: 8 out of 8
[3]; [9]
  Area: 20.8 ± 1.2 mm^2
  Intensity (staining intensity): 2.0 ± 0.05 arbitrary units
  Lesion Size: 43 ± 3
[4]; [10]
  Area: 188 ± 16 mm^2
  Intesnity: 1.4 ± 0.05
  Lesion Size: 260 ± 26
[4]; Table V, CRF 30 μg/kg s.c.
  muscle lesion size relative to that of the saline-treated control group: 44%
Edema of rat pawskin
  effect on edema produced by serotonin, substance P, bradykinin, neurotensin, histamine: antagonize the edema-producing properties

Reference: patent publication US5137871A, “Treatment to reduce edema for brain and musculature injuries” (Regents of the University of California, priority 1989, dated 1992)
